Activity calls are given as the source filed them. No cut-off for these calls is given here.
Legend:
[1] = target: SWI/SNF-related matrix-associated actin-dependent regulator of chromatin subfamily A member 2 (Homo sapiens, UniProt P51531); test: Luciferase reporter assay: SMARCA2 transcriptional activity in a SMARCA4-mutant cell line; type: functional
[2] = target: AP2-associated protein kinase 1 (Homo sapiens) (UniProt Q2M2I8); test: AAK1 SGC Tm panel (DSF); details: for ΔTm: Compound concentration 10.0 uM
[3] = target: Cyclin-dependent kinase-like 1 (Homo sapiens) (UniProt Q00532); test: CDKL1 SGC Tm panel (DSF); details: for ΔTm: Compound concentration 10.0 uM
[4] = target: T1, Mitogen-activated protein kinase 13 (Homo sapiens) (UniProt O15264); test: MAPK13 SGC Tm panel (DSF); details: for ΔTm: Compound concentration 10.0 uM
T1 sequence (whole entry): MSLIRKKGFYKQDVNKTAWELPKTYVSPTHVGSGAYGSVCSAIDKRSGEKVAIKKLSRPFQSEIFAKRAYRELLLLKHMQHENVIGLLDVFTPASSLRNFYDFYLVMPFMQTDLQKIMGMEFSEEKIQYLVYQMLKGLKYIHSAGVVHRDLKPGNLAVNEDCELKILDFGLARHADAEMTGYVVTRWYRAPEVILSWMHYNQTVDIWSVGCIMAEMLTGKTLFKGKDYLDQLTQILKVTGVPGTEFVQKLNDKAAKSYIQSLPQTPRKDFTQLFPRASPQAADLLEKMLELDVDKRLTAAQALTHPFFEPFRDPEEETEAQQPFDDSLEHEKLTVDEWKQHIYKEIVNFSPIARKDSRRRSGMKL

[5] = target: Mitogen-activated protein kinase 9 (Homo sapiens) (UniProt P45984); test: MAPK9 SGC Tm panel (DSF); details: for ΔTm: Compound concentration 10.0 uM
[6] = target: T2, Peregrin (Homo sapiens) (UniProt P55201); test: BRPF1 SGC Tm panel (DSF); details: for ΔTm: Compound concentration 10.0 uM
T2 sequence (whole entry): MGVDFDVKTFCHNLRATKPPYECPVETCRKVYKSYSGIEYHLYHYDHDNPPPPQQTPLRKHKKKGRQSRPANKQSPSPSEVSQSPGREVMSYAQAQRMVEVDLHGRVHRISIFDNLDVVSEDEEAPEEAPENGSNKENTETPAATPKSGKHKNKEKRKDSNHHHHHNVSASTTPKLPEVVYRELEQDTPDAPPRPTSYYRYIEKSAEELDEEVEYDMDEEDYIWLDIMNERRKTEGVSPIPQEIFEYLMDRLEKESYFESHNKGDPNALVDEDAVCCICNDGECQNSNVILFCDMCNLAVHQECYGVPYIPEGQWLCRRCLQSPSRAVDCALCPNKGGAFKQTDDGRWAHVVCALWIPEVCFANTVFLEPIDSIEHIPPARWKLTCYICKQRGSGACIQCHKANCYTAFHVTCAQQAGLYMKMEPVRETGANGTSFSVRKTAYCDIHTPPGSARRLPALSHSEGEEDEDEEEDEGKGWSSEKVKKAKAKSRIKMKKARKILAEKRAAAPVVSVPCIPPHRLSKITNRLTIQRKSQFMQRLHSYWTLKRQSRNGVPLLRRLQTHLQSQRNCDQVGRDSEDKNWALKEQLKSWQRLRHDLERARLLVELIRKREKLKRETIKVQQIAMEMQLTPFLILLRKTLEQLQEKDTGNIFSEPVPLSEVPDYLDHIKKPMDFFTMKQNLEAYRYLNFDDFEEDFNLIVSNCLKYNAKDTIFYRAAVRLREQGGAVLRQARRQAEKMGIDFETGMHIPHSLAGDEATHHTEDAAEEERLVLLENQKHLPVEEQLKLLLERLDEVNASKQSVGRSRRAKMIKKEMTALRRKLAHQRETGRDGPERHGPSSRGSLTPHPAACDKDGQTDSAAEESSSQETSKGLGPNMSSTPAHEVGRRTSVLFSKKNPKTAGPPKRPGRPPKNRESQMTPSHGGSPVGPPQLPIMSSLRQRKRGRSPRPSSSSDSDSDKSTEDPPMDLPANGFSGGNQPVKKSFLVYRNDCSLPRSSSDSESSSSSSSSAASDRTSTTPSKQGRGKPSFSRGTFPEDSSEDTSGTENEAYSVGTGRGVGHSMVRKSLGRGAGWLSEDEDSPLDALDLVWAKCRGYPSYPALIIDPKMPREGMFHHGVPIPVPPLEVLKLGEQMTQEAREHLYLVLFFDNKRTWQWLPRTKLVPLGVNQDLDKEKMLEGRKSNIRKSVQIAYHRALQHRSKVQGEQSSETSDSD

[7] = target: SRSF protein kinase 3 (Homo sapiens) (UniProt Q9UPE1); test: MSSK1 SGC Tm panel (DSF); details: for ΔTm: Compound concentration 10.0 uM
[8] = target: D(2) dopamine receptor (Homo sapiens) (UniProt P14416); details: Compound concentration 10.0 uM
[9] = target: Sodium-dependent noradrenaline transporter (Homo sapiens, UniProt P23975); details: Compound concentration 10.0 uM
[10] = target: Beta-1 adrenergic receptor (Homo sapiens) (UniProt P08588); details: Compound concentration 10.0 uM
[11] = target: Muscarinic acetylcholine receptor M3 (Homo sapiens) (UniProt P20309); details: Compound concentration 10.0 uM
Chain of Muscarinic acetylcholine receptor M3 (Homo sapiens) (P20309 whole entry, looked up): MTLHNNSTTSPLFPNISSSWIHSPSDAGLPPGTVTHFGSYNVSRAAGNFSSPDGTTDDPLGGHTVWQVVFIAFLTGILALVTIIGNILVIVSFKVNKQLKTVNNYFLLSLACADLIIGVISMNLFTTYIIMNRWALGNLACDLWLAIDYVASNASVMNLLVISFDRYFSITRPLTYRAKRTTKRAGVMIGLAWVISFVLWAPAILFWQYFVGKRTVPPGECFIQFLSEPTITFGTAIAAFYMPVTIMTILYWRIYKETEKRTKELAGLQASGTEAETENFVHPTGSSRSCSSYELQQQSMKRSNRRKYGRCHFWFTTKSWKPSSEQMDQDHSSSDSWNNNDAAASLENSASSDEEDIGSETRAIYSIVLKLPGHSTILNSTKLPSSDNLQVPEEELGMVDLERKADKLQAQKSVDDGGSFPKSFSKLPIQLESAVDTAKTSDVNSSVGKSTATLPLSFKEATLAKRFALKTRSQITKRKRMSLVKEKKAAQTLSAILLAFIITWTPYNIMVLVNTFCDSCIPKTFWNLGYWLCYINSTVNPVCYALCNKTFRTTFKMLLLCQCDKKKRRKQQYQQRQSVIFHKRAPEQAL

Chain of SRSF protein kinase 3 (Homo sapiens) (Q9UPE1 whole entry): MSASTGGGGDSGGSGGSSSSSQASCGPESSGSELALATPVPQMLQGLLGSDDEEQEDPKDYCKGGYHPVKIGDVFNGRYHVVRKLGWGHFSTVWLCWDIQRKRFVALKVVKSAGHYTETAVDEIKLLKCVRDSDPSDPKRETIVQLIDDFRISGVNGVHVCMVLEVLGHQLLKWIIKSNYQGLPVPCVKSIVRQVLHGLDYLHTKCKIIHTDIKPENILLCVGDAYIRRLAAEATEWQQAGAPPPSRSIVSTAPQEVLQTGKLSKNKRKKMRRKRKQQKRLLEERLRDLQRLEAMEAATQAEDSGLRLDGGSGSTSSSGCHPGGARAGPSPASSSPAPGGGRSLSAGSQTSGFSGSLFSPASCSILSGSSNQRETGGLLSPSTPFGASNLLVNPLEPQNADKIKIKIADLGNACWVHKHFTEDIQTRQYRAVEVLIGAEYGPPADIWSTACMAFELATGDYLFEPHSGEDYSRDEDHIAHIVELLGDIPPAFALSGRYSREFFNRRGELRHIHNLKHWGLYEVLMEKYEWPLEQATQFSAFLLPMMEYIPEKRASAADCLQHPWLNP
Chain of Mitogen-activated protein kinase 9 (Homo sapiens) (P45984 whole entry, looked up): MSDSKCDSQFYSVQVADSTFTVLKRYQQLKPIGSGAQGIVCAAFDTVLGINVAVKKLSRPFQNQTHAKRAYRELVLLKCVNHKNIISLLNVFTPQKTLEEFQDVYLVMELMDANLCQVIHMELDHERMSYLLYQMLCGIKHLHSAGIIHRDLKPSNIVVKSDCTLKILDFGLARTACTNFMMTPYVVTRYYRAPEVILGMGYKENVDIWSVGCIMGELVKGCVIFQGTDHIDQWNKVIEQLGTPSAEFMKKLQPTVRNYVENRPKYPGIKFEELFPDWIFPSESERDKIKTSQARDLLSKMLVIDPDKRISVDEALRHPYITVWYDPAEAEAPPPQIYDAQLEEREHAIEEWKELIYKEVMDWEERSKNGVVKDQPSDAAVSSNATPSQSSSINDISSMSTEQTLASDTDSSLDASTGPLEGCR
Chain of AP2-associated protein kinase 1 (Homo sapiens) (Q2M2I8 whole entry, looked up): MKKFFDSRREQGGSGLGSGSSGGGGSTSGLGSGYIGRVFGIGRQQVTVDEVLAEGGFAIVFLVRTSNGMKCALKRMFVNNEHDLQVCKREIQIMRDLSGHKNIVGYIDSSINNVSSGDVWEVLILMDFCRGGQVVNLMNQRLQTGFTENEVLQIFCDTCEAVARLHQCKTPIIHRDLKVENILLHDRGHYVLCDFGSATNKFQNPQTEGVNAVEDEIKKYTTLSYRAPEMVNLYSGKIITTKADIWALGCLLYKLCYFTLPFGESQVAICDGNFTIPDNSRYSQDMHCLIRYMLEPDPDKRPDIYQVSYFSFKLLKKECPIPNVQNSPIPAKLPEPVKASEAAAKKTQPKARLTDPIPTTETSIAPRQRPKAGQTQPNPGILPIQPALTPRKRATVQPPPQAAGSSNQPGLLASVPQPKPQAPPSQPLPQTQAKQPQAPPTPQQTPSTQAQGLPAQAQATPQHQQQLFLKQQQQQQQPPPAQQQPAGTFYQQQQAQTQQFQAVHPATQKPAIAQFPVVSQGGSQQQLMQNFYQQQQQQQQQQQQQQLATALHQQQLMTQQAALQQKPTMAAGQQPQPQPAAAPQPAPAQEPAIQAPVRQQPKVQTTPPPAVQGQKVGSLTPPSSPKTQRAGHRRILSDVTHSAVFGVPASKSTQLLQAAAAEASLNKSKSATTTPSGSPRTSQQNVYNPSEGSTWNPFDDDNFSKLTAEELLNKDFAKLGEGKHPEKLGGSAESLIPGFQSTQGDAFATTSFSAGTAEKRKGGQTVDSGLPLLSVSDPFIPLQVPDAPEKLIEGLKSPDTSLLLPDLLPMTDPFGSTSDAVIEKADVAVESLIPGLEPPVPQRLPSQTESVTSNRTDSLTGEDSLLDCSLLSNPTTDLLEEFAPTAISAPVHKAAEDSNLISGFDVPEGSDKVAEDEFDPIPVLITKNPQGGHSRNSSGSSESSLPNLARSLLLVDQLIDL
Chain of Cyclin-dependent kinase-like 1 (Homo sapiens) (Q00532 whole entry): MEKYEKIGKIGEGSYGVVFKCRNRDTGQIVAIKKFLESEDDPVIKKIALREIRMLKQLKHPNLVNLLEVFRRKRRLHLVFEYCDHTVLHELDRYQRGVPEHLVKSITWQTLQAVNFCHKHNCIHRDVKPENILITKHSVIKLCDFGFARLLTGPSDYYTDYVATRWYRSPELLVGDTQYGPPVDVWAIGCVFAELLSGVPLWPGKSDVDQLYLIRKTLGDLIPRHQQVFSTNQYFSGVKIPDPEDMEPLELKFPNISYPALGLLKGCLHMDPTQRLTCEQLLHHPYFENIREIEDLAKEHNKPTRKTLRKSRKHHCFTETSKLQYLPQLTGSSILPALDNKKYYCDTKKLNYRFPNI
Chain of Beta-1 adrenergic receptor (Homo sapiens) (P08588 whole entry, looked up): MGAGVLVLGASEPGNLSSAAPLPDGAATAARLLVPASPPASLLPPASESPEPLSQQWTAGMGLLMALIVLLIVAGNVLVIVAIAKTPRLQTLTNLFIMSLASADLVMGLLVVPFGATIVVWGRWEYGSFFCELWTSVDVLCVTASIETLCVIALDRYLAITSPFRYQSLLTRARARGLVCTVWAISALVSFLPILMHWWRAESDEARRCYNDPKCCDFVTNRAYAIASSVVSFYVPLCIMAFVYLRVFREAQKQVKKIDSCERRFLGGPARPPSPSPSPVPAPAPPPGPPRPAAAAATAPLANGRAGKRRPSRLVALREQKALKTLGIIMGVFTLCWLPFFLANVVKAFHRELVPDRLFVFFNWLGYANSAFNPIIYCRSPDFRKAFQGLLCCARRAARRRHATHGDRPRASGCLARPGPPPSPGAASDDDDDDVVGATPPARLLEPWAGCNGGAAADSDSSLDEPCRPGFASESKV
Chain of Sodium-dependent noradrenaline transporter (P23975 whole entry): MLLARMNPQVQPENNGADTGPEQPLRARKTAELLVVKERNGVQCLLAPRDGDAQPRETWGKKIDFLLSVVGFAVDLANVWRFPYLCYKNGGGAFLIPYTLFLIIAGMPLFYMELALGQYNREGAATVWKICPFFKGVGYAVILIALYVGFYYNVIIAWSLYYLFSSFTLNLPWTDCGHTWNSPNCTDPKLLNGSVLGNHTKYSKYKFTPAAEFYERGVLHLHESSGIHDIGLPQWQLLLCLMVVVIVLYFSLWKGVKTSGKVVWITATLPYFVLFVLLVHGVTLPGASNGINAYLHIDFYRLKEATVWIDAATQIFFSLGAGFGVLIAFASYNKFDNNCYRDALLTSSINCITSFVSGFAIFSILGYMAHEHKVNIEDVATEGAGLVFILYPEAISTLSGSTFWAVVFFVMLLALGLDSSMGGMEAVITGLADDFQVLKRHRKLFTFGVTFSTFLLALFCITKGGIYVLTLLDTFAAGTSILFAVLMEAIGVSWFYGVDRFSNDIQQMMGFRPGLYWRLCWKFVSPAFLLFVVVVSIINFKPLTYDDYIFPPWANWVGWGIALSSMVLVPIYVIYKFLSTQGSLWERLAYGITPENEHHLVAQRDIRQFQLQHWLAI
Chain of D(2) dopamine receptor (Homo sapiens) (P14416 whole entry): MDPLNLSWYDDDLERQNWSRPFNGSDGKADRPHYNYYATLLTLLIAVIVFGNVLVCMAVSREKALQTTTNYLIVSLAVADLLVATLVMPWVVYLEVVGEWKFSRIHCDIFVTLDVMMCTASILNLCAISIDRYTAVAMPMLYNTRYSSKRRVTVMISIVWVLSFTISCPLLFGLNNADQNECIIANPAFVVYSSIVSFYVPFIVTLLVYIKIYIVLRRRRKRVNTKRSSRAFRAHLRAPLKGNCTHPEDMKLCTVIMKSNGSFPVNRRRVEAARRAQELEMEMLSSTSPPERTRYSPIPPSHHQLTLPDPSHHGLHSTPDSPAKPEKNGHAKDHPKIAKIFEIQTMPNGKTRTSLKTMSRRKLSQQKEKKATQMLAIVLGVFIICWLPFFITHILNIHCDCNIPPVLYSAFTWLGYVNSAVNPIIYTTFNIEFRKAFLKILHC

SMILES	IC50 [1]	delta Tm Staurosporine positive control [2]	ΔTm [2]	delta Tm Staurosporine positive control [3]	ΔTm [3]	delta Tm Staurosporine positive control [4]	ΔTm [4]	delta Tm Staurosporine positive control [5]	ΔTm [5]	delta Tm Staurosporine positive control [6]	ΔTm [6]	delta Tm Staurosporine positive control [7]	ΔTm [7]	inhibition [8]	inhibition [9]	inhibition [10]	inhibition [11]
C[C@H](NC(=O)c1cn(C2(C#N)CC2)cn1)C(=O)Nc1nc(-c2cccc(-c3ccn(C)n3)c2)cs1	4.35 µM (not active)	11.6	0.0243	5	0.189	6.96	0.161	3.96	0.39	-0.0506	-1.18	3.67	0.0986	6.41%	69.8%	3.85%	40.1%
COC[C@H](NC(=O)c1ccn(S(C)(=O)=O)c1)C(=O)Nc1nc(-c2cccc(-c3ccn(C)n3)c2)cs1	0.0298 µM (active)	11.6	-0.00871	5	0.194	6.96	0.221	3.96	0.244	-0.0506	-1.23	3.67	0.376	6.68%	45.5%	1.4%	9.46%

Reference: ChEMBL document CHEMBL5303766, “Data for DCP probe FHT-2344” (2022)
